#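 Each compound was tested at five concentrations against cells in 96-well plates for 48 hours. Here, GI50 denotes the concentration required for 50% inhibition of growth. TGI: concentration producing complete growth inhibition.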
# Key:
# Experiment in all cases: growth of human tumour cells (NCI), 48 h
# OVCAR-8 ovarian = test system: OVCAR-8 ovarian
# HL-60(TB) leukemia = test system: HL-60(TB) leukemia
# MDA-MB-435 = test system: MDA-MB-435
# UO-31 renal = test system: UO-31 renal
# MALME-3M melanoma = test system: MALME-3M melanoma
# SNB-19 CNS = test system: SNB-19 CNS
# HOP-92 NSCLC = test system: HOP-92 NSCLC
# TK-10 renal = test system: TK-10 renal
# SF-268 CNS = test system: SF-268 CNS
# BT-549 breast = test system: BT-549 breast
# SR leukemia = test system: SR leukemia
# RPMI-8226 leukemia = test system: RPMI-8226 leukemia
# SK-MEL-28 melanoma = test system: SK-MEL-28 melanoma
# U251 CNS = test system: U251 CNS
# SF-295 CNS = test system: SF-295 CNS
# OVCAR-5 ovarian = test system: OVCAR-5 ovarian
# UACC-257 melanoma = test system: UACC-257 melanoma
# 786-0 renal = test system: 786-0 renal
# HOP-62 NSCLC = test system: HOP-62 NSCLC
# MOLT-4 leukemia = test system: MOLT-4 leukemia
# NCI-H460 lung = test system: NCI-H460 lung
# LOX IMVI melanoma = test system: LOX IMVI melanoma
# UACC-62 melanoma = test system: UACC-62 melanoma
# NCI/ADR-RES ovarian = test system: NCI/ADR-RES ovarian
# SK-OV-3 ovarian = test system: SK-OV-3 ovarian
# MCF7 breast = test system: MCF7 breast
# RXF 393 renal = test system: RXF 393 renal
# NCI-H522 lung = test system: NCI-H522 lung
# OVCAR-4 ovarian = test system: OVCAR-4 ovarian
# OVCAR-3 ovarian = test system: OVCAR-3 ovarian
# T-47D breast = test system: T-47D breast
# KM12 colon = test system: KM12 colon
# SF-539 CNS = test system: SF-539 CNS
# EKVX NSCLC = test system: EKVX NSCLC
# SNB-75 CNS = test system: SNB-75 CNS
# A498 renal = test system: A498 renal
# CAKI-1 renal = test system: CAKI-1 renal
# HCT-15 colon = test system: HCT-15 colon
# M14 melanoma = test system: M14 melanoma
# HCC-2998 colon = test system: HCC-2998 colon
# HCT-116 colon = test system: HCT-116 colon
# IGROV1 ovarian = test system: IGROV1 ovarian
# SN12C renal = test system: SN12C renal
# NCI-H23 lung = test system: NCI-H23 lung
# MDA-MB-231 breast = test system: MDA-MB-231 breast
# SW-620 colon = test system: SW-620 colon
# HT29 colon = test system: HT29 colon
# ACHN renal = test system: ACHN renal
# COLO 205 colon = test system: COLO 205 colon
# NCI-H226 lung = test system: NCI-H226 lung
# A549 NSCLC = test system: A549 NSCLC
# HS 578T breast = test system: HS 578T breast
# CCRF-CEM leukemia = test system: CCRF-CEM leukemia
# K-562 leukemia = test system: K-562 leukemia
# PC-3 prostate = test system: PC-3 prostate
# SK-MEL-5 melanoma = test system: SK-MEL-5 melanoma
structure (smiles),measurement,setting,value
COc1ccc(N(C)c2nc(C)nc3ccccc23)cc1,GI50,OVCAR-8 ovarian,< 10 nM
same,TGI,OVCAR-8 ovarian,> 63.1 µM
same,GI50,HL-60(TB) leukemia,< 10 nM
same,TGI,HL-60(TB) leukemia,< 10 nM
same,GI50,MDA-MB-435,< 10 nM
same,TGI,MDA-MB-435,< 10 nM
same,GI50,UO-31 renal,10.3 nM
same,TGI,UO-31 renal,60.4 µM
same,TGI,MALME-3M melanoma,39.5 µM
same,GI50,SNB-19 CNS,< 10 nM
same,TGI,SNB-19 CNS,> 100 µM
same,GI50,HOP-92 NSCLC,< 10 nM
same,TGI,HOP-92 NSCLC,4.94 µM
same,TGI,TK-10 renal,> 47.5 µM
same,GI50,SF-268 CNS,< 10 nM
same,TGI,SF-268 CNS,> 34 µM
same,GI50,BT-549 breast,< 10 nM
same,TGI,BT-549 breast,36.9 µM
same,GI50,SR leukemia,< 10 nM
same,TGI,SR leukemia,> 36.5 µM
same,GI50,RPMI-8226 leukemia,< 10 nM
same,TGI,RPMI-8226 leukemia,18 µM
same,GI50,SK-MEL-28 melanoma,19.3 µM
same,TGI,SK-MEL-28 melanoma,> 100 µM
same,GI50,U251 CNS,< 10 nM
same,TGI,U251 CNS,> 100 µM
same,GI50,SF-295 CNS,< 10 nM
same,GI50,OVCAR-5 ovarian,< 10 nM
same,TGI,OVCAR-5 ovarian,> 100 µM
same,GI50,UACC-257 melanoma,11.3 µM
same,TGI,UACC-257 melanoma,27 µM
same,GI50,786-0 renal,< 10 nM
same,TGI,786-0 renal,55.7 µM
same,GI50,HOP-62 NSCLC,< 10 nM
same,TGI,HOP-62 NSCLC,> 100 µM
same,GI50,MOLT-4 leukemia,< 10 nM
same,TGI,MOLT-4 leukemia,> 100 µM
same,GI50,NCI-H460 lung,< 10 nM
same,GI50,LOX IMVI melanoma,< 10 nM
same,TGI,LOX IMVI melanoma,> 51.4 µM
same,GI50,UACC-62 melanoma,< 10 nM
same,TGI,UACC-62 melanoma,> 49.6 µM
same,GI50,NCI/ADR-RES ovarian,< 10 nM
same,GI50,SK-OV-3 ovarian,< 10 nM
same,TGI,SK-OV-3 ovarian,> 26.1 µM
same,GI50,MCF7 breast,< 10 nM
same,TGI,MCF7 breast,> 100 µM
same,GI50,RXF 393 renal,< 10 nM
same,TGI,RXF 393 renal,> 100 µM
same,GI50,NCI-H522 lung,< 10 nM
same,TGI,NCI-H522 lung,< 10 nM
same,GI50,OVCAR-4 ovarian,< 10 nM
same,TGI,OVCAR-4 ovarian,> 100 µM
same,GI50,OVCAR-3 ovarian,< 10 nM
same,TGI,OVCAR-3 ovarian,< 10 nM
same,GI50,T-47D breast,14.2 µM
same,TGI,T-47D breast,> 100 µM
same,GI50,KM12 colon,< 10 nM
same,GI50,SF-539 CNS,< 10 nM
same,TGI,SF-539 CNS,> 100 µM
same,GI50,EKVX NSCLC,< 10 nM
same,TGI,EKVX NSCLC,40.8 µM
same,GI50,SNB-75 CNS,< 10 nM
same,TGI,SNB-75 CNS,> 100 µM
same,GI50,A498 renal,< 10 nM
same,TGI,A498 renal,< 10 nM
same,GI50,CAKI-1 renal,< 10 nM
same,TGI,CAKI-1 renal,46.4 µM
same,GI50,HCT-15 colon,< 10 nM
same,TGI,HCT-15 colon,> 100 µM
same,GI50,M14 melanoma,< 10 nM
same,TGI,M14 melanoma,14.9 µM
same,GI50,HCC-2998 colon,< 10 nM
same,TGI,HCC-2998 colon,4.31 µM
same,GI50,HCT-116 colon,< 10 nM
same,TGI,HCT-116 colon,> 36 µM
same,GI50,IGROV1 ovarian,< 10 nM
same,TGI,IGROV1 ovarian,> 100 µM
same,GI50,SN12C renal,< 10 nM
same,TGI,SN12C renal,> 100 µM
same,GI50,NCI-H23 lung,< 10 nM
same,TGI,NCI-H23 lung,20.8 µM
same,GI50,MDA-MB-231 breast,< 10 nM
same,TGI,MDA-MB-231 breast,> 100 µM
same,GI50,SW-620 colon,< 10 nM
same,TGI,SW-620 colon,> 100 µM
same,GI50,HT29 colon,< 10 nM
same,GI50,ACHN renal,< 10 nM
same,TGI,ACHN renal,> 91.8 µM
same,GI50,COLO 205 colon,< 10 nM
same,TGI,COLO 205 colon,< 10 nM
same,GI50,NCI-H226 lung,< 10 nM
same,TGI,NCI-H226 lung,534 nM
same,GI50,A549 NSCLC,< 10 nM
same,TGI,A549 NSCLC,> 100 µM
same,GI50,HS 578T breast,< 10 nM
same,TGI,HS 578T breast,> 100 µM
same,GI50,CCRF-CEM leukemia,< 10 nM
same,TGI,CCRF-CEM leukemia,> 100 µM
same,GI50,K-562 leukemia,< 10 nM
same,TGI,K-562 leukemia,> 100 µM
same,GI50,PC-3 prostate,< 10 nM
same,TGI,PC-3 prostate,36.8 µM
same,GI50,SK-MEL-5 melanoma,< 10 nM
same,TGI,SK-MEL-5 melanoma,< 10 nM

# From PubChem BioAssay (NCI)
